Patent US20260241012A1, “1,8-NAPHTHYRIDIN-2-ONE HETEROBIFUNCTIONAL BCL6 DEGRADERS” (Treeline Biosciences, Inc., priority 2022, published 2026)

Biological target: T1, N-terminal HiBiT tagged BCL6 (Homo sapiens, UniProt P41182)
T1 construct: expressed in transfected cells; host or cells: HT1080 (ATCC CCL-121), stably transduced with lentivirus pLV-UBC-N-HiBiT-BCL6-PGK-puro
Assay: HiBiT based degradation assay
Format: cell-based
Details: HT1080 cells expressing N-terminal HiBiT tagged BCL6, 5 hours of incubation; for Ymin (5 hr): BCL6 degradation normalized with DMSO control; for DC50: four-parameter logistic model, read-out: EC50 (5 hr)
How it was run: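 Degradation measured by luminescence from the Nano-Glo HiBiT lytic reagent (15 min, room temperature), normalized to DMSO controls and fitted to a four-parameter curve.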

Row | SMILES | Ymin (5 hr) | DC50 [nM]
1 | CNC(=O)COc1cc2cc(Nc3nc(NC4CCC5(CC4)CN(c4ccc6c(C7CCC(=O)NC7=O)nn(C)c6c4)C5)ncc3Cl)cnc2n(C(C)C)c1=O (stereo not shown) [Compound 206, 2-[[6-[[5-chloro-2-[[2-[3-(2,6-dioxo-3-piperidyl)-1-methyl-indazol-6-yl]-2-azaspiro[3.5]nonan-7-yl]amino]pyrimidin-4-yl]amino]-1-isopropyl-2-oxo-1,8-naphthyridin-3-yl]oxy]-N-methyl-acetamide] | ++++ (Ymin < 30%) | < 10
2 | CNC(=O)COc1cc2cc(Nc3nc(N4CC5(CC(N(C)c6ccc7c(C8CCC(=O)NC8=O)nn(C)c7c6)C5)C4)ncc3Cl)cnc2n(C(C)C)c1=O (stereo not shown) [Compound 207, 2-[[6-[[5-chloro-2-[6-[[3-(2,6-dioxo-3-piperidyl)-1-methyl-indazol-6-yl]-methyl-amino]-2-azaspiro[3.3]heptan-2-yl]pyrimidin-4-yl]amino]-1-isopropyl-2-oxo-1,8-naphthyridin-3-yl]oxy]-N-methyl-acetamide] | +++ (30% ≤ Ymin < 50%) | < 10
3 | CNC(=O)COc1cc2cc(Nc3nc(N4CCN(CC5CCN(c6cccc7c(C8CCC(=O)NC8=O)nn(C)c67)CC5)[C@H](C(C)(C)O)C4)ncc3Cl)cnc2n(C(C)C)c1=O (stereo partly drawn) [Compound 208a, 2-[[6-[[5-chloro-2-[(3S)-4-[[1-[3-(2,6-dioxo-3-piperidyl)-1-methyl-indazol-7-yl]-4-piperidyl]methyl]-3-(1-hydroxy-1-methyl-ethyl)piperazin-1-yl]pyrimidin-4-yl]amino]-1-isopropyl-2-oxo-1,8-naphthyridin-3-yl]oxy]-N-methyl-acetamide] | +++ (30% ≤ Ymin < 50%) | 10 to 100
4 | CNC(=O)COc1cc2cc(Nc3nc(N4CCN(CC5CCN(c6cccc7c(C8CCC(=O)NC8=O)nn(C)c67)CC5)[C@@H](C(C)(C)O)C4)ncc3Cl)cnc2n(C(C)C)c1=O (stereo partly shown) [Compound 208b] | ++++ (Ymin < 30%) | 10 to 100
5 | CNC(=O)COc1cc2cc(Nc3nc(N4CCC(CN5C6CC5CN(c5cccc7c(C8CCC(=O)NC8=O)nn(C)c57)C6)CC4)ncc3Cl)cnc2n(C(C)C)c1=O (stereo not shown) [Compound 209, 2-[[6-[[5-chloro-2-[4-[[3-[3-(2,6-dioxo-3-piperidyl)-1-methyl-indazol-7-yl]-3,6-diazabicyclo[3.1.1]heptan-6-yl]methyl]-1-piperidyl]pyrimidin-4-yl]amino]-1-isopropyl-2-oxo-1,8-naphthyridin-3-yl]oxy]-N-methyl-acetamide] | +++ (30% ≤ Ymin < 50%) | < 10
6 | CNC(=O)COc1cc2cc(Nc3nc(N4CCC(CN5CCN(c6cccc7c(C8CCC(=O)NC8=O)nn(C)c67)[C@@H](C)C5)CC4)ncc3F)cnc2n(C(C)C)c1=O (stereo partly drawn) [Compound 210a, 2-[[6-[[2-[4-[[(3S)-4-[3-(2,6-dioxo-3-piperidyl)-1-methyl-indazol-7-yl]-3-methyl-piperazin-1-yl]methyl]-1-piperidyl]-5-fluoro-pyrimidin-4-yl]amino]-1-isopropyl-2-oxo-1,8-naphthyridin-3-yl]oxy]-N-methyl-acetamide] | ++++ (Ymin < 30%) | 10 to 100
7 | CNC(=O)COc1cc2cc(Nc3nc(N4CCC(CN5CCN(c6cccc7c(C8CCC(=O)NC8=O)nn(C)c67)[C@H](C)C5)CC4)ncc3F)cnc2n(C(C)C)c1=O (stereo partly drawn) [Compound 210b, 2-[[6-[[2-[4-[[(3R)-4-[3-(2,6-dioxo-3-piperidyl)-1-methyl-indazol-7-yl]-3-methyl-piperazin-1-yl]methyl]-1-piperidyl]-5-fluoro-pyrimidin-4-yl]amino]-1-isopropyl-2-oxo-1,8-naphthyridin-3-yl]oxy]-N-methyl-acetamide] | ++++ (Ymin < 30%) | 10 to 100
8 | CNC(=O)COc1cc2cc(Nc3nc(N4CCC(C(=O)N5CCN(c6ccc7c(C8CCC(=O)NC8=O)nn(C)c7c6)CC5)CC4)ncc3Cl)cnc2n(C(C)C)c1=O (stereo not shown) [Compound 211, 2-[[6-[[5-chloro-2-[4-[4-[3-(2,6-dioxo-3-piperidyl)-1-methyl-indazol-6-yl]piperazine-1-carbonyl]-1-piperidyl]pyrimidin-4-yl]amino]-1-isopropyl-2-oxo-1,8-naphthyridin-3-yl]oxy]-N-methyl-acetamide] | +++ (30% ≤ Ymin < 50%) | < 10
9 | CNC(=O)COc1cc2cc(Nc3nc(N4CCC(CN5CCC(c6ccc7c(C8CCC(=O)NC8=O)nn(C)c7c6)CC5)CC4)ncc3Cl)cnc2n(C(C)C)c1=O (stereo not shown) [Compound 212, 2-((6-((5-chloro-2-(4-((4-(3-(2,6-dioxopiperidin-3-yl)-1-methyl-1H-indazol-6-yl)piperidin-1-yl)methyl)piperidin-1-yl)pyrimidin-4-yl)amino)-1-isopropyl-2-oxo-1,2-dihydro-1,8-naphthyridin-3-yl)oxy)-N-methylacetamide] | ++++ (Ymin < 30%) | < 10
10 | CNC(=O)COc1cc2cc(Nc3nc(N4CC5(CC(Oc6ccc7c(C8CCC(=O)NC8=O)nn(C)c7c6)C5)C4)ncc3Cl)cnc2n(C(C)C)c1=O (stereo not shown) [Compound 213, 2-[[6-[[5-chloro-2-[6-[3-(2,6-dioxo-3-piperidyl)-1-methyl-indazol-6-yl]oxy-2-azaspiro[3.3]heptan-2-yl]pyrimidin-4-yl]amino]-1-isopropyl-2-oxo-1,8-naphthyridin-3-yl]oxy]-N-methyl-acetamide] | ++++ (Ymin < 30%) | < 10
11 | CNC(=O)COc1cc2cc(Nc3nc(N4CCC(CN5CCN(c6ccc7c(C8CCC(=O)NC8=O)nn(C)c7c6)CC5)CC4)ncc3Cl)cnc2n(C(C)C)c1=O (stereo not shown) [Compound 214, 2-((6-((5-chloro-2-(4-((4-(3-(2,6-dioxopiperidin-3-yl)-1-methyl-1H-indazol-6-yl)piperazin-1-yl)methyl)piperidin-1-yl)pyrimidin-4-yl)amino)-1-isopropyl-2-oxo-1,2-dihydro-1,8-naphthyridin-3-yl)oxy)-N-methylacetamide] | +++ (30% ≤ Ymin < 50%) | < 10

The next lines start with the values.

Row | Ymin (5 hr) | DC50 [nM] | SMILES
12 | +++ (30% ≤ Ymin < 50%) | < 10 | CNC(=O)COc1cc2cc(Nc3nc(N4CCC(CN5CCN(c6ccc7c(C8CCC(=O)NC8=O)nn(C)c7c6)C[C@H]5C)CC4)ncc3Cl)cnc2n(C(C)C)c1=O (stereo partly drawn) [Compound 215a, 2-((6-((5-chloro-2-(4-(((2R)-4-(3-(2,6-dioxopiperidin-3-yl)-1-methyl-1H-indazol-6-yl)-2-methylpiperazin-1-yl)methyl)piperidin-1-yl)pyrimidin-4-yl)amino)-1-isopropyl-2-oxo-1,2-dihydro-1,8-naphthyridin-3-yl)oxy)-N-methylacetamide]
13 | +++ (30% ≤ Ymin < 50%) | 10 to 100 | CNC(=O)COc1cc2cc(Nc3nc(N4CCC(CN5CCN(c6ccc7c(C8CCC(=O)NC8=O)nn(C)c7c6)C[C@@H]5C)CC4)ncc3Cl)cnc2n(C(C)C)c1=O (stereo partly drawn) [Compound 215b, 2-((6-((5-chloro-2-(4-(((2S)-4-(3-(2,6-dioxopiperidin-3-yl)-1-methyl-1H-indazol-6-yl)-2-methylpiperazin-1-yl)methyl)piperidin-1-yl)pyrimidin-4-yl)amino)-1-isopropyl-2-oxo-1,2-dihydro-1,8-naphthyridin-3-yl)oxy)-N-methylacetamide]
14 | ++ (50% ≤ Ymin < 70%) | 10 to 100 | CNC(=O)COc1cc2cc(Nc3nc(N4CCN(C[C@H]5CCN(c6ccc7c(C8CCC(=O)NC8=O)nn(C)c7c6)C5)[C@@H](C)C4)ncc3Cl)cnc2n(C(C)C)c1=O (stereo partly drawn) [Compound 216a, 2-[[6-[[5-chloro-2-[(3S)-4-[[(3R)-1-[3-(2,6-dioxo-3-piperidyl)-1-methyl-indazol-6-yl]pyrrolidin-3-yl]methyl]-3-methyl-piperazin-1-yl]pyrimidin-4-yl]amino]-1-isopropyl-2-oxo-1,8-naphthyridin-3-yl]oxy]-N-methyl-acetamide]
15 | +++ (30% ≤ Ymin < 50%) | 10 to 100 | CNC(=O)COc1cc2cc(Nc3nc(N4CCN(C[C@@H]5CCN(c6ccc7c(C8CCC(=O)NC8=O)nn(C)c7c6)C5)[C@@H](C)C4)ncc3Cl)cnc2n(C(C)C)c1=O (stereo partly drawn) [Compound 216b, 2-((6-((5-Chloro-2-((3S)-4-(((3S)-1-(3-(2,6-dioxopiperidin-3-yl)-1-methyl-1H-indazol-6-yl)pyrrolidin-3-yl)methyl)-3-methylpiperazin-1-yl)pyrimidin-4-yl)amino)-1-isopropyl-2-oxo-1,2-dihydro-1,8-naphthyridin-3-yl)oxy)-N-methylacetamide]
16 | ++ (50% ≤ Ymin < 70%) | < 10 | CNC(=O)COc1cc2cc(Nc3nc(N4CCN(C[C@H]5CCN(c6ccc7c(C8CCC(=O)NC8=O)nn(C)c7c6)C5)[C@H](C)C4)ncc3Cl)cnc2n(C(C)C)c1=O (stereo partly drawn) [Compound 216c, 2-[[6-[[5-chloro-2-[(3R)-4-[[(3R)-1-[3-(2,6-dioxo-3-piperidyl)-1-methyl-indazol-6-yl]pyrrolidin-3-yl]methyl]-3-methyl-piperazin-1-yl]pyrimidin-4-yl]amino]-1-isopropyl-2-oxo-1,8-naphthyridin-3-yl]oxy]-N-methyl-acetamide]
17 | +++ (30% ≤ Ymin < 50%) | < 10 | CNC(=O)COc1cc2cc(Nc3nc(N4CCN(C[C@@H]5CCN(c6ccc7c(C8CCC(=O)NC8=O)nn(C)c7c6)C5)[C@H](C)C4)ncc3Cl)cnc2n(C(C)C)c1=O (stereo partly drawn) [Compound 216d, 2-[[6-[[5-chloro-2-[(3R)-4-[[(3S)-1-[3-(2,6-dioxo-3-piperidyl)-1-methyl-indazol-6-yl]pyrrolidin-3-yl]methyl]-3-methyl-piperazin-1-yl]pyrimidin-4-yl]amino]-1-isopropyl-2-oxo-1,8-naphthyridin-3-yl]oxy]-N-methyl-acetamide]
